These results are taken from patent US20100029615A1, “BENZIMIDAZOLE DERIVATIVES” (priority 2006, published 2010).

The structures appear in SMILES notation. Counter-ions that a name gives are not always drawn.

In one assay the target is T1, SMO (Mus musculus, UniProt P56726).
T1 construct: endogenous in cells; host or cells: C3H10T1/2 (ATCC #CCL-226)
T1 sequence (P56726 33-793): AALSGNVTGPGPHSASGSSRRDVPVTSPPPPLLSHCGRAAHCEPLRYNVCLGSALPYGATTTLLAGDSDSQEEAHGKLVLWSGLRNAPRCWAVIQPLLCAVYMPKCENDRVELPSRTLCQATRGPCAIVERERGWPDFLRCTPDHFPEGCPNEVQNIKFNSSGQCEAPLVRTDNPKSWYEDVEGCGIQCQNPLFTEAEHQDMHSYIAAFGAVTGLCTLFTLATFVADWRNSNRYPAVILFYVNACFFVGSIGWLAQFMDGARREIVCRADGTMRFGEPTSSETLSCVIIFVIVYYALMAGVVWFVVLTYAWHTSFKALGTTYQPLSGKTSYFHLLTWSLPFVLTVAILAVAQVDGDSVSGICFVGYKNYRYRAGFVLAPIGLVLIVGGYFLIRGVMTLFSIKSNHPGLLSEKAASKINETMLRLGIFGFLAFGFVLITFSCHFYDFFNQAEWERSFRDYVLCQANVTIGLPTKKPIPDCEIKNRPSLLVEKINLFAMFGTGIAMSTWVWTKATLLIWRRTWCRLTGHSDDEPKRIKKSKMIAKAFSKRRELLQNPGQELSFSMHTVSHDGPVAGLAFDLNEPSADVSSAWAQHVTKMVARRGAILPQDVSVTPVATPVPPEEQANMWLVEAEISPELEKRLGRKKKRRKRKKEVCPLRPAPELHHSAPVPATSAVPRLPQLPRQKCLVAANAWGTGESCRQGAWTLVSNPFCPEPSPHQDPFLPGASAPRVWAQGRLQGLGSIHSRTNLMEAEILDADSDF
In words: Smoothened (SMO)/Sonic Hedgehog (SHh) Transient Transcriptional Activation Assay (Gli-luciferase reporter in C3H10T1/2 cells). To be noted: 2 μM test compound, SHh 250 ng/ml, 20 hrs, HCl, 2 µM. The format is cell-based, murine. The gist of the method:
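C3H10T1/2 cells transiently transfected with a 10× murine Gli-responsive firefly luciferase reporter plus pEGFP, serum-starved 20 h in 0.5% calf serum, then treated with compounds (2 uM–2 nM final) and 250 ng/ml recombinant human SHh for 20 h at 37 °C. Read-out: Dual-Glo luminescence.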
As to `O=C(N[C@@H]1CCC[C@H](c2nc3ccccc3[nH]2)C1)c1ccc2c(c1)CCCO2` [Example 266, N-[(1R,3S)-3-(1H-benzimidazol-2-yl)cyclohexyl] chromane-6-carboxamide HCl], the “SMO CELL % INHIBITION @ 2 μM” value came out at 102.05%.

Staying with this assay, now noted: C3H 10T1/2, 2 uM test compound, SHh 250 ng/ml, 20 hrs, read-out: SMO % inhibition at 2 uM.
For `COc1cc(OC)cc(C(=O)N[C@@H]2CCC[C@H](c3nc4ccc(C(F)(F)F)cc4[nH]3)C2)c1` [Example 4, 3,5-Dimethoxy-N-((1R,3S)-3-[5-(trifluoromethyl)-1H-benzo[d]imidazol-2-yl)cyclohexyl)benzamide], the inhibition at 2 µM is 105%. On the same count and under the same terms, for `O=C(N[C@@H]1CCC[C@H](c2nc3ccccc3[nH]2)C1)c1ccc(Cl)nc1` [N-((1R,3S)-3-(1H-Benzo[d]imidazol-2-yl)cyclohexyl)-6-chloronicotinamide] the value was 103%; for `COc1cc(OC)cc(C(=O)NC2CCCC(c3nc4ccc(NS(C)(=O)=O)cc4[nH]3)C2)c1` (centres unmarked) [Example 11, 3,5-Dimethoxy-N-(3-(5-(methylsulfonamido)-1H-benzo[d]imidazol-2-yl)cyclohexyl)benzamide], 86%.

The same assay, now with this note: C3H 10T1/2, 2 μM test compound, SHh 250 ng/ml, 20 hrs, read-out: SMO CELL % INHIBITION @ 2 μM.
As for `COc1cc(C(=O)NC2CCCC(c3nc4ccccc4[nH]3)C2)nc(OC)n1` (centres unmarked) [Example 119, N-[3-(1H-benzimidazol-2-yl)cyclohexyl]-2,6-dimethoxypyr-imidine-4-carboxamide triflouroacetate], the inhibition at 2 µM is 75%. Regarding `COc1ccc(NC(=O)N[C@@H]2CCC[C@H](c3nc4ccccc4[nH]3)C2)c(C)c1` [Example 235, 1-[(1R,3S)-3-(1H-benzimidazol-2-yl)cyclohexyl]-3-(4-methoxy-2-methylphenyl) urea], the inhibition at 2 µM amounted to 98%.

Regarding `O=C(N[C@@H]1CCC[C@H](c2nc3ccc(C(F)(F)F)cc3[nH]2)C1)c1ccc2c(c1)OCCO2` [Example 223, N-((1R,3S)-3-[6-(trifluoromethyl)-1H-benzimidazol-2-yl]cyclohexyl]-2,3-dihydro-1,4-benzodioxine-6-carboxamide HCl], the inhibition at 2 µM came out at 105%.

Take `COc1cc(C(=O)NC2CCCC(c3nc4ccccc4[nH]3)C2)cc2c1OCCO2` (centres unmarked) [Example 139, N-[3-(1H-benzimidazol-2-yl)cyclohexyl]-8-methoxy-2,3-dihydro-1,4-benzodioxine-6-carboxamide triflouroacetate]: the inhibition at 2 µM came out at 105%. As for `O=C(N[C@H]1CCC[C@@H](c2nc3ccc(Cl)cc3[nH]2)C1)c1ccc2c(c1)OCCO2` [Example 179, N-[(1S,3R)-3-(6-chloro-1H-benzimidazol-2-yl)cyclohexyl]-2,3-dihydro-1,4-benzodioxine-6-carboxamide HCl], the inhibition at 2 µM is 106%. The same measure, in the same setting: as for `CCc1n[nH]c(C(=O)NC2CCCC(c3nc4ccccc4[nH]3)C2)c1C` (centres unmarked) [Example 155, N-[3-(1H-benzimidazol-2-yl)cyclohexyl]-3-ethyl-4-methyl-1H-pyrazol-5-carboxamide triflouroacetate], the figure is 64%; as for `Cn1ccnc1-c1ccc(C(=O)NC2CCCC(c3nc4ccccc4[nH]3)C2)cc1` (centres unmarked) [Example 159, N-[3-(1H-benzimidazol-2-yl)cyclohexyl]-4-(1-methyl-1H-imidazol-2-yl)benzamide triflouroacetate], 78%; as for `O=C(N[C@@H]1CCC[C@H](c2nc3cc(C(F)(F)F)ccc3[nH]2)C1)c1ccc2c(c1)CNCC2` [Example 303, N-{(1R,3S)-3-[5-(trifluoromethyl)-1H-benzimidazol-2-yl]cyclohexyl}-1,2,3,4-tetrahydroiso-quinoline-7-carboxamide HCl], 111%.

`O=C(Nc1cc(F)cc2c1OCOC2)N[C@@H]1CCC[C@H](c2nc3ccccc3[nH]2)C1` [Example 230, 1-[(1R,3S)-3-(1H-benzimidazol-2-yl)cyclohexyl]-3-(6-fluoro-4H-1,3-benzodioxol-8-yl)urea]: the inhibition at 2 µM worked out at 111%.

As to `O=C(N[C@@H]1CCC[C@H](c2nc3ccccc3[nH]2)C1)C1=Cc2ccccc2OC1` [Example 193, N-[(1R,3S)-3-(1H-benzimidazol-2-yl)cyclohexyl]-2H-chromene-3-carboxamide triflouroacetate], the inhibition at 2 µM is 53%.
